The nature of data set [1]: Growth inhibition of mouse 3T3 cells. Format: cell-based. As to conditions: NIH3T3 cells.
For a further data set, the species on record is Mus musculus. Put plainly: Cicatrizant activity in mouse assessed as wound healing by tensile strength method. Format: functional.

SMILES strings stand for the structures. ≈ marks a conversion by molar mass, not a printed value. Calls of active or inactive are those of the source. The calls are words filed in the database; no cut-off is given here.

The term GI50 denotes the concentration that inhibits growth by half. Higher therefore signals less potent growth inhibition. Usually ED50 stands for the dose that gives a 50% effect, or the effect in half of the subjects.

In data set [1], `CC(C)=CCC[C@](C)(O)[C@H]1CC=C(C)CC1` yielded a GI50 of 8 mg/L (≈ 36 µM).

Regarding `C=CC(C)(O)CC/C=C(\C)CCC=C(C)C` (stereo not drawn), the ED50 result in the data set listed under Mus musculus was “inactive”.

In the case of `CC(C)=CCC/C(C)=C/CC/C(C)=C/CO`, in the data set listed under Mus musculus, the ED50 result is “inactive”.

As to `CC1=CC[C@@H](C(C)(C)O)CC1` [ALPHA-TERPINEOL], the ED50 in the data set filed under Mus musculus came to 240 mg/kg. The concentration for 50% growth inhibition (GI50) in data set [1] was found to be 17 mg/L (≈ 110 µM).

Consider `CC(C)=CCC[C@](C)(O)[C@@H]1CC=C(C)CC1` [LEVOMENOL], for which the ED50 in the data set filed under Mus musculus was found to be 228 mg/kg. In data set [1], halving of growth (GI50) required 84 mg/L (≈ 378 µM).

Turning to `COc1ccc2c(=O)oc3c(OC)cc(CCN(C)C)c4c(=O)oc1c2c34` [TASPINE], the 50% effective dose (ED50) in the data set listed under Mus musculus worked out at 15 mg/kg.
